From US9321738B2, “N-alkyltriazole compounds as LPAR antagonists” (Hoffmann-La Roche Inc., priority 2012, dated 2016)

Assays:
[1] = biological target: human recombinant LPA1 Lysophospholipid receptor (Homo sapiens (Human), UniProt Q92633); assay: Calcium flux assay using FLIPR, LPAR1 antagonist activity; format: cell-based; conditions: for IC50: ChemiScreen stable cell line, antagonist mode, calcium flux
Description: (§1) Calcium Flux Assay Using Fluorometric Imaging Plate Reader (FLIPR)
Cell Culture Conditions: The ChemiScreen Calcium-optimized stable cell line containing the human recombinant LPA1 Lysophospholipid receptor was purchased from Chemicon International, Inc./Millipore. The cells were cultured in DMEM-high glucose supplemented with 10% fetal bovine serum, 2 mM glutamine, 100 U/mL penicillin/100 μg/mL streptomycin, 1× non-essential amino acids, 10 mM HEPES and 0.25 mg/mL Geneticin. Cells were harvested with trypsin-EDTA and counted using ViaCount reagent. The cell suspension volume was adjusted to 2.0×10^5 cells/mL with complete growth media. Aliquots of 50 μL were dispensed into 384 well black/clear tissue culture treated plates (BD) and the microplates were placed in a 37° C. incubator overnight. The following day plates were used in the assay.
(§2) Dye Loading and Assay: Loading Buffer (FLIPR Calcium-4, Molecular Devices) was prepared by dissolving the contents of one bottle into 100 mL Hank's Balanced Salt Solution containing 20 mM HEPES and 2.5 mM probenecid. Plates were loaded onto Biotek plate washer and growth media was removed and replaced with 20 μL of Hank's Balanced Salt Solution containing 20 mM HEPES and 2.5 mM probenecid, followed by 25 μL of Loading Buffer. The plates were then incubated for 30 minutes at 37° C.
(§3) During the incubation, test compounds were prepared by adding 90 μL of HBSS/20 mM HEPES/0.1% BSA buffer to 2 μL of serially diluted compounds. To prepare serial dilutions, 10 mM stocks of compounds were prepared in 100% DMSO. The compound dilution plate was set up as follows: well #1 received 29 μL of stock compound and 31 μL DMSO. Wells 2-10 received 40 μL of DMSO. After mixing, 20 μL of solution from well #1 was transferred into well #2, followed by 1:3 serial dilutions out 10 steps. 2 μL of diluted compound was transferred into duplicate wells of 384 well “assay plate” and then 90 μL of buffer was added.
(§4) After incubation, both the cell and “assay” plates were brought to the FLIPR and 20 μL of the diluted compounds were transferred to the cell plates by the FLIPR. Compound addition was monitored by the FLIPR to detect any agonist activity of the compounds. Plates were then incubated for 30 minutes at room temperature protected from light. After the incubation, plates were returned to the FLIPR and 20 μL of 4.5× concentrated agonist was added to the cell plates. During the assay, fluorescence readings were taken simultaneously from all 384 wells of the cell plate every 1.5 seconds. Five readings were taken to establish a stable baseline, then 20 μL of sample was rapidly (30 μL/sec) and simultaneously added to each well of the cell plate. The fluorescence was continuously monitored before, during and after sample addition for a total elapsed time of 100 seconds. Responses (increase in peak fluorescence) in each well following agonist addition was determined. The initial fluorescence reading from each well, prior to ligand stimulation, was used as zero baseline value for the data from that well. The responses were expressed as % inhibition of the buffer control. The IC50 value, defined as the concentration of a compound that is required for 50% inhibition of the buffer control, was calculated by fitting the percent inhibition data for 10 concentrations to a sigmoidal dose-response (4 parameter logistic) model using Genedata Condoseo program [model 205, F(x)=(A+(B−A)/(1+((C/x)^D))))].

LPAR3 = LPAR3 (Homo sapiens (Human), UniProt Q9UBY5); assay: Calcium flux assay using FLIPR, LPAR3 antagonist activity; format: cell-based; conditions: for IC50: antagonist mode, calcium flux
Description: as §1, §2, §3, §4

LPAR3, sequence (Q9UBY5 whole entry, species assumed): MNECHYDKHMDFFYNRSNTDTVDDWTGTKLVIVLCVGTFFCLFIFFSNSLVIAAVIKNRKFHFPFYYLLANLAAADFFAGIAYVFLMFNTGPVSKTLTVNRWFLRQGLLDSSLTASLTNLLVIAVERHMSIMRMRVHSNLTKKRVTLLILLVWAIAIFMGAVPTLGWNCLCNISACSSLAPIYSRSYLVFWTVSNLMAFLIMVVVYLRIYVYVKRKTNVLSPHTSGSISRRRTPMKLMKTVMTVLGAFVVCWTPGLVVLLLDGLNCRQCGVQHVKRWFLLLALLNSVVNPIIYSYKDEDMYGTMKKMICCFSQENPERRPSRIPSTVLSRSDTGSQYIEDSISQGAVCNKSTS
human recombinant LPA1 Lysophospholipid receptor, sequence (Q92633 whole entry): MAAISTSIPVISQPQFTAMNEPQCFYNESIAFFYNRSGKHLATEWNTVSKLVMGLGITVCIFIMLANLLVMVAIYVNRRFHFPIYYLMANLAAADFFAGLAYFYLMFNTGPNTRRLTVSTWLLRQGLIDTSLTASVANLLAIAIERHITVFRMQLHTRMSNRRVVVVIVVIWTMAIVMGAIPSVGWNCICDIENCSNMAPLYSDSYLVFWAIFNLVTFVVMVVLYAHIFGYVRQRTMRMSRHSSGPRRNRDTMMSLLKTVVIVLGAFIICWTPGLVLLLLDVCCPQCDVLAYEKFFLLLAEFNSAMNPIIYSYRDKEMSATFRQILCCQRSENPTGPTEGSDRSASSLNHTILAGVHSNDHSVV

| IC50 [1] [nM] | IC50 (LPAR3) [nM] | inhibition at 30 µM (LPAR3) [%] | inhibition at 30 µM ([1]; at 30 μM) [%] | Structure (SMILES) |
| --- | --- | --- | --- | --- |
| 46 | 279 | – | – | CC(OC(=O)Nc1c(-c2ccc(-c3ccc(C4(C(=O)O)CC4)cc3)cc2)nnn1C)c1cccc(C(F)(F)F)c1 (racemic) [Example 4, 1-(4′-{1-Methyl-5-[1-(3-trifluoromethyl-phenyl)-ethoxycarbonylamino]-1H-[1,2,3]triazol-4-yl}-biphenyl-4-yl)-cyclopropanecarboxylic acid] |
| 18.8 | 2310 | – | – | C[C@@H](OC(=O)Nc1c(-c2ccc(-c3ccc(C4(C(=O)NS(C)(=O)=O)CC4)cc3)cc2)nnn1C)c1ccccc1 [Example 12, {5-[4′-(1-Methanesulfonylaminocarbonyl-cyclopropyl)-biphenyl-4-yl]-3-methyl-3H-[1,2,3]triazol-4-yl}-carbamic acid (R)-1-phenyl-ethyl ester] |
| 18 | 2290 | – | – | C[C@@H](OC(=O)Nc1c(-c2ccc(-c3ccc(C4(C(=O)O)CC4)cc3)cc2)nnn1C)c1ccccc1 [Example 2, 1-{4′-[1-Methyl-5-((R)-1-phenyl-ethoxycarbonylamino)-1H-[1,2,3]triazol-4-yl]-biphenyl-4-yl}-cyclopropanecarboxylic acid] |
| 24.5 | 65.7 | – | – | C[C@@H](OC(=O)Nc1c(-c2ccc(-c3ccc(C4(C(=O)NS(C)(=O)=O)CC4)cc3)cc2)nnn1C)c1cccc(C(F)(F)F)c1 [Example 13, {5-[4′-(1-Methanesulfonylaminocarbonyl-cyclopropyl)-biphenyl-4-yl]-3-methyl-3H-[1,2,3]triazol-4-yl}-carbamic acid (R)-1-(3-trifluoromethyl-phenyl)-ethyl ester] |
| 18 | 132 | – | – | C[C@@H](OC(=O)Nc1c(-c2ccc(-c3ccc(C4(C(=O)O)CC4)cc3)cc2)nnn1C)c1cccc(C(F)(F)F)c1 [Example 6, 1-(4′-{1-Methyl-5-[(R)-1-(3-trifluoromethyl-phenyl)-ethoxycarbonylamino]-1H-[1,2,3]triazol-4-yl}-biphenyl-4-yl)-cyclopropanecarboxylic acid] |
| 48 | 21900 | 58.2 | – | C[C@@H](OC(=O)Nc1c(-c2ccc(-c3ccc(CC(=O)O)cc3)cc2)nnn1C)c1ccccc1 [Example 3, {4′-[1-Methyl-5-((R)-1-phenyl-ethoxycarbonylamino)-1H-[1,2,3]triazol-4-yl]-biphenyl-4-yl}-acetic acid] |
| > 30000 | > 30000 | – | – | C[C@@H](OC(=O)Nc1nnn(C)c1-c1ccc(-c2ccc(C3(C(=O)O)CC3)cc2)cc1)c1ccccc1 [Example 8, 1-{4′-[3-Methyl-5-((R)-1-phenyl-ethoxycarbonylamino)-3H-[1,2,3]triazol-4-yl]-biphenyl-4-yl}-cyclopropanecarboxylic acid] |
| 4450 | 18400 | 62 | – | C[C@@H](OC(=O)Nc1c(-c2ccc(-c3cccc(C4(C(=O)O)CC4)c3)cc2)nnn1C)c1ccccc1 [Example 9, (R)-1-(4′-(1-Methyl-5-((1-phenylethoxy)carbonylamino)-1H-1,2,3-triazol-4-yl)biphenyl-3-yl)cyclopropanecarboxylic acid] |

Second part, the molecule before the results:

| Structure (SMILES) | IC50 [1] [nM] | IC50 (LPAR3) [nM] | inhibition at 30 µM (LPAR3) [%] | inhibition at 30 µM ([1]; at 30 μM) [%] |
| --- | --- | --- | --- | --- |
| C[C@@H](OC(=O)Nc1c(-c2ccc(C3CCC(CC(=O)O)CC3)cc2)nnn1C)c1ccccc1 (stereo partly drawn) [Example 14, (4-{4-[1-Methyl-5-((R)-1-phenyl-ethoxycarbonylamino)-1H-[1,2,3]triazol-4-yl]-phenyl}-cyclohexyl)-acetic acid] | 58 | 18600 | 68 | – |
| C[C@H](OC(=O)Nc1c(-c2ccc(-c3ccc(C4(C(=O)O)CC4)cc3)cc2)nnn1C)c1cccc(C(F)(F)F)c1 [Example 5, 1-(4′-{1-Methyl-5-[(S)-1-(3-trifluoromethyl-phenyl)-ethoxycarbonylamino]-1H-[1,2,3]triazol-4-yl}-biphenyl-4-yl)-cyclopropanecarboxylic acid] | 2660 | 6310 | – | – |
| C[C@@H](OC(=O)Nc1c(-c2ccc(-c3ccc(C4(C(=O)O)CC4)cc3)cc2F)nnn1C)c1ccccc1 [Example 11, 1-{3′-Fluoro-4′-[1-methyl-5-((R)-1-phenyl-ethoxycarbonylamino)-1H-[1,2,3]triazole-4-yl]-biphenyl-4-yl}-cyclopropanecarboxylic acid] | 18 | 27400 | 62 | – |
| CC(C)[C@@H](C)OC(=O)Nc1c(-c2ccc(-c3ccc(C4(C(=O)O)CC4)cc3)cc2)nnn1C [Example 7, 1-{4′-[5-((R)-1,2-Dimethyl-propoxycarbonylamino)-1-methyl-1H-[1,2,3]triazol-4-yl]biphenyl-4-yl}-cyclopropanecarboxylic acid] | 70 | > 30000 | – | – |
| COC(=O)C1(c2ccc(-c3ccc(-c4nnn(C)c4NC(=O)O[C@H](C)c4ccccc4)c(F)c3)cc2)CC1 [Example 10, 1-{3′-Fluoro-4′-[1-methyl-5-((R)-1-phenyl-ethoxycarbonylamino)-1H-[1,2,3]triazole-4-yl]-biphenyl-4-yl}-cyclopropanecarboxylic acid methyl ester] | > 30000 | > 30000 | – | – |
| C[C@@H](OC(=O)Nc1c(-c2ccc(Br)cc2)nnn1C)c1ccccc1 [Example 1, [5-(4-Bromo-phenyl)-3-methyl-3H-[1,2,3]triazol-4-yl]-carbamic acid (R)-1-phenyl-ethyl ester] | 21900 | > 30000 | – | 52.3 |
